Assay results taken from patent publication US20250049948A1, “NOVEL IONIZABLE LIPIDS AND LIPID NANOPARTICLES AND METHODS OF USING THE SAME” (Sail Biomedicines, Inc., priority 2021, published 2025).

Legend:
[1] = mRNA encapsulation efficiency, Quant-iT RiboGreen RNA Assay; format: physicochemical
Procedure: (§1) For each LNP composition, the lipid mix and mRNA solution were mixed at a 1:3 ratio by volume, respectively, on a NanoAssemblr Ignite (Precision Nanosystems) at a total flow rate of 9 mL/min. The resulting compositions were then loaded into Slide-A-Lyzer G2 dialysis cassettes (10 k MWCO) and dialyzed in 200 times sample volume of 1×PBS for 2 hours at room temperature with gentle stirring. The PBS was refreshed, and the compositions were further dialyzed for at least 14 hours at 4° C. with gentle stirring. The dialyzed compositions were then collected and concentrated by centrifugation at 3000×g using Amicon Ultra centrifugation filters (100 k MWCO). The concentrated particles were characterized for size, polydispersity, and particle concentration using Zetasizer Ultra (Malvern Panalytical) and for mRNA encapsulation efficiency using Quant-iT RiboGreen RNA Assay Kit (ThermoFisher Scientific).

[2] = Apparent LNP pKa, TNS assay; format: physicochemical; conditions: LNP with FLUC/EPO 1:1 mRNA
Procedure: For pKa measurement, a […] assay was conducted according to those described in Sabnis et al., Molecular Therapy, 26(6):1509-19), which is incorporated herein by reference in its entirety. Briefly, 20 buffers (10 mM sodium phosphate, 10 mM sodium borate, 10 mM sodium citrate, and 150 mM sodium chloride, in distilled Water) of unique pH values ranging from 3.0-12.0 were prepared using 1M sodium hydroxide and 1M hydrochloric acid. 3.25 μL of a LNP composition (0.04 mg/mL mRNA, in PBS) was incubated with 2 μL of TNS reagent (0.3 mM, in DMSO) and 90 μL of buffer for each pH value (described above) in a 96-well black-walled plate. Each pH condition was performed in triplicate wells. The TNS fluorescence was measured using a Biotek Cytation Plate reader at excitation/emission wavelengths of 321/445 nm. The fluorescence values were then plotted and fit using a 4-parameter sigmoid curve. From the fit, the pH value yielding the half-maximal fluorescence was calculated and reported as the apparent LNP pKa value.

Balb/c mice [3] = assay: EPO levels in plasma, EPO MSD kit (Example 6); format: in vivo; conditions: mRNA dose 5 μg FLUC + 5 μg EPO, intravenous
[4] = LNP size and polydispersity, Zetasizer Ultra; format: physicochemical
Procedure: as §1

Balb/c mice [5] = assay: In-vivo bioluminescent imaging of LNP compositions (Example 6); conditions: for Bioluminescence (IV) Liver / Bioluminescence (IV) Lung / Bioluminescence (IV) Spleen / Bioluminescence (IV) Whole Body: 4-6 hours post-dose; for Spleen: Liver Ratio: intravenous
[6] = mRNA dose 5 μg FLUC (CRE/FLUC 1:1 LNP)

Row | % EE ([1]; LNP with FLUC/EPO 1:1 mRNA) | pKa (TNS) [2] | PDI ([4]; LNP with FLUC/EPO 1:1 mRNA) | Size (nm) ([4]; LNP with FLUC/EPO 1:1 mRNA) | SMILES | hEPO (Balb/c mice [3]) | Bioluminescence (IV) Liver (Balb/c mice [5]; mRNA dose 5 μg FLUC + 5 μg EPO) | Bioluminescence (IV) Lung (Balb/c mice [5]; mRNA dose 5 μg FLUC + 5 μg EPO) | Bioluminescence (IV) Spleen (Balb/c mice [5]; mRNA dose 5 μg FLUC + 5 μg EPO) | Bioluminescence (IV) Whole Body (Balb/c mice [5]; mRNA dose 5 μg FLUC + 5 μg EPO) | Spleen: Liver Ratio (Balb/c mice [5]; mRNA dose 5 μg FLUC + 5 μg EPO) | other results
1 | 95.9% | 7.57 | 0.06 | 73.83 nm | CCCCCC(CCCCC)CCCOC(=O)CCCCCCCN(CCCCCCCC(=O)OCCCC(CCCCC)CCCCC)C(=O)CCN1CCCC1 [Compound 2141, bis(4-pentylnonyl) 8,8′-((3-(pyrrolidin-1-yl)propanoyl)azanediyl)dioctanoate] | 2.1E + 03 | 3.1E + 04 | 6.8E + 04 | 1.3E + 05 | 1.9E + 05 | 6.131 | % EE ([1]; LNP with CRE/FLUC 1:1 mRNA): 95.6%; % EE ([1]; LNP with EGFP mRNA): 95.4%; PDI ([4]; LNP with CRE/FLUC 1:1 mRNA): 0.11; Size (nm) ([4]; LNP with CRE/FLUC 1:1 mRNA): 79.4 nm; PDI ([4]; LNP with EGFP mRNA): 0.21; Size (nm) ([4]; LNP with EGFP mRNA): 109.3 nm; Bioluminescence (IV) Liver (Balb/c mice [5]; [6]): 5.6E + 05; Bioluminescence (IV) Lung (Balb/c mice [5]; [6]): 7.1E + 03; Bioluminescence (IV) Spleen (Balb/c mice [5]; [6]): 2.3E + 05; Bioluminescence (IV) Whole Body (Balb/c mice [5]; [6]): 5.5E + 06; Spleen: Liver Ratio (Balb/c mice [5]; [6]): 0.527
2 | 91.2% | 6.83 | 0.04 | 85.5 nm | CCCCCC(CCCCC)CCCOC(=O)CCCCCCCN(CCCCCCCC(=O)OCCCC(CCCCC)CCCCC)C(=O)CN1CCCC1 [Compound 2233, bis(4-pentylnonyl) 8,8′-((2-(pyrrolidin-1-yl)acetyl)azanediyl) dioctanoate] | 2.8E + 06 | 6.1E + 07 | 4.1E + 04 | 4.7E + 06 | 5.4E + 08 | 0.077 | 
3 | 97.5% | 7.76 | 0.067 | 84.84 nm | CCCCCC(CCCCC)CCCOC(=O)CCCCCCCN(CCCCCCCC(=O)OCCCC(CCCCC)CCCCC)C(=O)CCN1CCC(O)C1 (centres unmarked) [Compound 2235, bis(4-pentylnonyl) 8,8′-((3-(3-hydroxypyrrolidin-1-yl)propanoyl)azanediyl)dioctanoate] | 2.2E + 02 | 2.0E + 03 | 7.6E + 03 | 2.9E + 04 | 9.8E + 03 | 14.407 | 
4 | 92.2% | 6.31 | 0.068 | 73.75 nm | CCCCCCCCCCCOC(=O)CCCCCN(CCCCCCCC(=O)OC(CCCCCCCC)CCCCCCCC)C(C)(C)CO [Compound 2250, heptadecan-9-yl 8-((1-hydroxy-2-methylpropan-2-yl)(6-oxo-6-(undecyloxy)hexyl)amino)octanoate] | 9.5E + 05 | 2.7E + 07 | 7.9E + 03 | 2.7E + 06 | 1.5E + 08 | 0.099 | 

Row | SMILES | % EE ([1]; LNP with FLUC/EPO 1:1 mRNA) | pKa (TNS) [2] | PDI ([4]; LNP with FLUC/EPO 1:1 mRNA) | Size (nm) ([4]; LNP with FLUC/EPO 1:1 mRNA) | hEPO (Balb/c mice [3]) | Bioluminescence (IV) Liver (Balb/c mice [5]; mRNA dose 5 μg FLUC + 5 μg EPO) | Bioluminescence (IV) Lung (Balb/c mice [5]; mRNA dose 5 μg FLUC + 5 μg EPO) | Bioluminescence (IV) Spleen (Balb/c mice [5]; mRNA dose 5 μg FLUC + 5 μg EPO) | Bioluminescence (IV) Whole Body (Balb/c mice [5]; mRNA dose 5 μg FLUC + 5 μg EPO) | Spleen: Liver Ratio (Balb/c mice [5]; mRNA dose 5 μg FLUC + 5 μg EPO) | other results
5 | CCCCCCC(CCCCCC)CCCOC(=O)CCCCCCCN(CCCCCCCC(=O)OCCCC(CCCCCC)CCCCCC)C(=O)CCCN(C)C [Compound 2133, bis(4-hexyldecyl) 8,8′-((4-(dimethylamino)butanoyl)azanediyl) dioctanoate] | 98.7% | 7.96 | 0.08 | 87.7 nm | 2.5E + 02 | 4.4E + 04 | 5.8E + 04 | 3.9E + 04 | 3.8E + 04 | 1.574 | 
6 | CCCCCCCCCCCOC(=O)CCCCCN(CCCCCCCC(=O)OC(CCCCCCCC)CCCCCCCC)C(C)CO (centres unmarked) [Compound 2249, heptadecan-9-yl 8-((1-hydroxypropan-2-yl)(6-oxo-6-(undecyloxy)hexyl)amino)octanoate] | 93.3% | 5.84 | 0.08 | 86.05 nm | 7.6E + 05 | 1.2E + 07 | 7.9E + 03 | 3.2E + 06 | 7.2E + 07 | 0.258 | 
